In patent US8388986B2, “Use of cationic surfactants in cosmetic preparations” (priority 2001, dated 2013):

How the values were obtained:
[1] = tested on: Arthrobacter oxydans ATCC 8010; assay: minimum inhibitory concentration; assay type: cell-based; conditions: Gram + Bacteria
[2] = tested on: Micrococcus luteus ATCC 9631; assay: minimum inhibitory concentration; assay type: cell-based; conditions: Gram + Bacteria
[3] = tested on: Citrobacter freundii ATCC 22636; assay: minimum inhibitory concentration; assay type: cell-based; conditions: Gram − Bacteria
[4] = tested on: Enterobacter aerogenes CECT 689; assay: minimum inhibitory concentration; assay type: cell-based; conditions: Gram − Bacteria
Escherichia coli 0157H7 = assay: minimum inhibitory concentration; assay type: cell-based; conditions: Gram − Bacteria
[5] = tested on: Penicillium funiculosum CECT 2914; assay: minimum inhibitory concentration; assay type: cell-based; conditions: Fungi
[6] = tested on: Candida albicans ATCC 10231; assay: minimum inhibitory concentration; assay type: cell-based; conditions: Yeast
Aerobes = assay: preservative efficacy (Antimicrobial Effectiveness Testing USP 24th Edition) in cosmetic formulations; assay type: cell-based; conditions: 0.20 g of LAE
Procedure: (§1) This assay consists of the contamination of the protecting formulations with an inoculum mixture of 10^8 cfu/mL concentration, for each of the microorganisms, and the determination of the number of viable cells in the time. This inoculum mixture is composed of the following microorganisms:
(§2) The cosmetic composition to be analysed is divided into sterile containers with 50 g of product for each flask. Each container is inoculated with 0.5 mL of inoculum (10^8 cfu/mL). The target concentration is 10^6 cfu/mL, approximately. All the containers are kept at a temperature between 20-25° C. and are protected from light.
(§3) The level of the microbial contamination is checked at 0 hours, 7 days, 14 days and 28 days. The number of colonies is evaluated by dilution in buffer peptone with the appropriate neutraliser agent of the preservative. The culture media used for counting the microorganisms are: Soya triptone (35-37° C., 48 hours) for the determination of bacteria; Sabouraud agar with chloramphenicol for fungi and yeast (25° C., 3-5 days).
(§4) According to Antimicrobial Effectiveness Testing USP 24th Edition, 1999 (pp. 1809-1811), an antimicrobial preservative is considered to be effective in topically used products made with aqueous bases or vehicles, non-sterile nasal products and emulsions, including those applied to mucous membranes, if: • Not less than 2.0 logarithm reduction from the initial calculated bacteria's count is reached at 14 days and no increase from the 14 days' count at 28 days is detected; and • No increase from the initial calculated count of yeast and moulds is observed.

Fungi = assay: as above; assay type: cell-based, Aspergillus niger ATCC 16404; conditions: 0.20 g of LAE
Procedure: as §1, §2, §3, §4

[7] = Example 1, oil-in-water emulsion with non-ionic surfactant, 7 days
[8] = Example 1, oil-in-water emulsion with non-ionic surfactant, 14 days
[9] = Example 1, oil-in-water emulsion with non-ionic surfactant, Initial
[10] = Example 2, oil-in-water emulsion with an ionic emulsifier, 7 days
[11] = Example 2, oil-in-water emulsion with an ionic emulsifier, 14 days
[12] = Example 2, oil-in-water emulsion with an ionic emulsifier, Initial
[13] = Example 3, water in oil emulsion with non-ionic emulsifiers, 7 days
[14] = Example 3, water in oil emulsion with non-ionic emulsifiers, 14 days
[15] = Example 3, water in oil emulsion with non-ionic emulsifiers, Initial
[16] = Example 4, aqueous solution with a surfactants' mixture (bath gels, disodium cocoamfoacetate), 7 days
[17] = Example 4, aqueous solution with a surfactants' mixture (bath gels, disodium cocoamfoacetate), 14 days
[18] = Example 4, aqueous solution with a surfactants' mixture (bath gels, disodium cocoamfoacetate), Initial
[19] = Example 5, aqueous solution with a surfactants' mixture (bath gels, disodium lauryl sulfosuccinate), 7 days
[20] = Example 5, aqueous solution with a surfactants' mixture (bath gels, disodium lauryl sulfosuccinate), 14 days
[21] = Example 5, aqueous solution with a surfactants' mixture (bath gels, disodium lauryl sulfosuccinate), Initial
[22] = Example 6, hydroalcoholic gel (after-shaving lotions), 7 days
[23] = Example 6, hydroalcoholic gel (after-shaving lotions), 14 days
[24] = Example 6, hydroalcoholic gel (after-shaving lotions), Initial
[25] = Example 7, facial tonic, 7 days
[26] = Example 7, facial tonic, 14 days
[27] = Example 7, facial tonic, Initial
[28] = Example 8, mask-up cleaner, 7 days
[29] = Example 8, mask-up cleaner, 14 days
[30] = Example 8, mask-up cleaner, Initial
[31] = Example 9, fluid oil-in-water emulsion with non-ionic surfactants (body oil), 7 days
[32] = Example 9, fluid oil-in-water emulsion with non-ionic surfactants (body oil), 14 days
[33] = Example 9, fluid oil-in-water emulsion with non-ionic surfactants (body oil), Initial
[34] = Example 10, toothpaste formulation, 7 days
[35] = Example 10, toothpaste formulation, 14 days
[36] = Example 10, toothpaste formulation, Initial
[37] = Example 11, aqueous solution with surfactants (shampoos), 7 days
[38] = Example 11, aqueous solution with surfactants (shampoos), 14 days
[39] = Example 11, aqueous solution with surfactants (shampoos), Initial
[40] = Example 12, oil-in-water emulsion with non-ionic surfactants (face cream), 7 days
[41] = Example 12, oil-in-water emulsion with non-ionic surfactants (face cream), 14 days
[42] = Example 12, oil-in-water emulsion with non-ionic surfactants (face cream), Initial
[43] = Example 13, oil-in-water emulsion with non-ionic surfactants (sun protector, polysorbate 60), 7 days
[44] = Example 13, oil-in-water emulsion with non-ionic surfactants (sun protector, polysorbate 60), 14 days
[45] = Example 13, oil-in-water emulsion with non-ionic surfactants (sun protector, polysorbate 60), Initial
[46] = Example 14, oil-in-water emulsion with non-ionic surfactants (sun protector, cetyl dimethicone copolyol), 7 days
[47] = Example 14, oil-in-water emulsion with non-ionic surfactants (sun protector, cetyl dimethicone copolyol), 14 days
[48] = Example 14, oil-in-water emulsion with non-ionic surfactants (sun protector, cetyl dimethicone copolyol), Initial
[49] = Example 15, emulsion for hands care, 7 days
[50] = Example 15, emulsion for hands care, 14 days
[51] = Example 15, emulsion for hands care, Initial

Work on CCCCCCCCCCCC(=O)N[C@@H](CCCN=C(N)N)C(=O)OCC.Cl [LAE, ethyl ester of the lauramide of the arginine monohydrochloride] yielded a M.I.C. [1] of 64 ppm, a M.I.C. [2] of 128 ppm and a M.I.C. [3] of 64 ppm. The M.I.C. [4] was 32 ppm, the M.I.C. (Escherichia coli 0157H7) was 20 ppm and the M.I.C. [5] was 16 ppm. The M.I.C. [6] was 16 ppm, the “viable count With LAE” value (Aerobes; [7]) was 3.1 · 10^3 cfu/mL and the “viable count With LAE” value (Aerobes; [8]) was 3.3 · 10^2 cfu/mL. The “viable count With LAE” value (Aerobes; [9]) was 1.1 · 10^6 cfu/mL, the “viable count With LAE” value (Aerobes; [10]) was 1.6 · 10^4 cfu/mL and the “viable count With LAE” value (Aerobes; [11]) was 6.5 · 10^2 cfu/mL. For the same compound, the “viable count With LAE” value (Aerobes; [12]) was 2.7 · 10^6 cfu/mL, the “viable count With LAE” value (Aerobes; [13]) was 1.8 · 10^3 cfu/mL and the “viable count With LAE” value (Aerobes; [14]) was <9.9 · 10^1 cfu/mL. For the same compound, the “viable count With LAE” value (Aerobes; [15]) was 6.2 · 10^6 cfu/mL, the “viable count With LAE” value (Aerobes; [16]) was 5.8 · 10^3 cfu/mL and the “viable count With LAE” value (Aerobes; [17]) was <9.9 · 10^1 cfu/mL. For the same compound, the “viable count With LAE” value (Aerobes; [18]) was 3.3 · 10^6 cfu/mL, the “viable count With LAE” value (Aerobes; [19]) was 4.8 · 10^2 cfu/mL and the “viable count With LAE” value (Aerobes; [20]) was 1.3 · 10^2 cfu/mL. For the same compound, the “viable count With LAE” value (Aerobes; [21]) was 6.7 · 10^6 cfu/mL, the “viable count With LAE” value (Aerobes; [22]) was 6.9 · 10^3 cfu/mL and the “viable count With LAE” value (Aerobes; [23]) was <9.9 · 10^1 cfu/mL. The “viable count With LAE” value (Aerobes; [24]) was 3.7 · 10^6 cfu/mL, the “viable count With LAE” value (Aerobes; [25]) was 3.6 · 10^3 cfu/mL and the “viable count With LAE” value (Aerobes; [26]) was 5.9 · 10^2 cfu/mL. The “viable count With LAE” value (Aerobes; [27]) was 2.7 · 10^6 cfu/mL, the “viable count With LAE” value (Aerobes; [28]) was 3.8 · 10^3 cfu/mL and the “viable count With LAE” value (Aerobes; [29]) was 6.7 · 10^2 cfu/mL. The “viable count With LAE” value (Aerobes; [30]) was 4.5 · 10^6 cfu/mL, the “viable count With LAE” value (Aerobes; [31]) was 7.6 · 10^3 cfu/mL and the “viable count With LAE” value (Aerobes; [32]) was <9.9 · 10^1 cfu/mL. The “viable count With LAE” value (Aerobes; [33]) was 4.5 · 10^6 cfu/mL, the “viable count With LAE” value (Aerobes; [34]) was 3.3 · 10^3 cfu/mL and the “viable count With LAE” value (Aerobes; [35]) was 8.0 · 10^2 cfu/mL. For the same compound, the “viable count With LAE” value (Aerobes; [36]) was 4.5 · 10^6 cfu/mL, the “viable count With LAE” value (Aerobes; [37]) was 4.8 · 10^3 cfu/mL and the “viable count With LAE” value (Aerobes; [38]) was 7.0 · 10^2 cfu/mL. The “viable count With LAE” value (Aerobes; [39]) was 3.3 · 10^6 cfu/mL, the “viable count With LAE” value (Aerobes; [40]) was 3.7 · 10^4 cfu/mL and the “viable count With LAE” value (Aerobes; [41]) was 1.9 · 10^3 cfu/mL. For the same compound, the “viable count With LAE” value (Aerobes; [42]) was 1.1 · 10^6 cfu/mL, the “viable count With LAE” value (Aerobes; [43]) was 8.4 · 10^3 cfu/mL and the “viable count With LAE” value (Aerobes; [44]) was 7.5 · 10^2 cfu/mL. The “viable count With LAE” value (Aerobes; [45]) was 3.1 · 10^6 cfu/mL, the “viable count With LAE” value (Aerobes; [46]) was 9.4 · 10^2 cfu/mL and the “viable count With LAE” value (Aerobes; [47]) was 8.7 · 10^2 cfu/mL. The “viable count With LAE” value (Aerobes; [48]) was 1.4 · 10^6 cfu/mL, the “viable count With LAE” value (Aerobes; [49]) was 3.3 · 10^3 cfu/mL and the “viable count With LAE” value (Aerobes; [50]) was <9.9 · 10^1 cfu/mL. For the same compound, the “viable count With LAE” value (Aerobes; [51]) was 4.4 · 10^6 cfu/mL, the “viable count With LAE” value (Fungi; [7]) was <9.9 · 10^1 cfu/mL and the “viable count With LAE” value (Fungi; [8]) was <9.9 · 10^1 cfu/mL. The “viable count With LAE” value (Fungi; [9]) was 1.7 · 10^4 cfu/mL, the “viable count With LAE” value (Fungi; [10]) was <9.9 · 10^1 cfu/mL and the “viable count With LAE” value (Fungi; [11]) was <9.9 · 10^1 cfu/mL. The “viable count With LAE” value (Fungi; [12]) was 1.4 · 10^4 cfu/mL, the “viable count With LAE” value (Fungi; [13]) was <9.9 · 10^1 cfu/mL and the “viable count With LAE” value (Fungi; [14]) was <9.9 · 10^1 cfu/mL. For the same compound, the “viable count With LAE” value (Fungi; [15]) was 1.0 · 10^4 cfu/mL, the “viable count With LAE” value (Fungi; [16]) was 2.7 · 10^2 cfu/mL and the “viable count With LAE” value (Fungi; [17]) was <9.9 · 10^1 cfu/mL. The “viable count With LAE” value (Fungi; [18]) was 1.9 · 10^4 cfu/mL, the “viable count With LAE” value (Fungi; [19]) was <9.9 · 10^1 cfu/mL and the “viable count With LAE” value (Fungi; [20]) was <9.9 · 10^1 cfu/mL. For the same compound, the “viable count With LAE” value (Fungi; [21]) was 1.4 · 10^4 cfu/mL, the “viable count With LAE” value (Fungi; [22]) was 4.1 · 10^2 cfu/mL and the “viable count With LAE” value (Fungi; [23]) was <9.9 · 10^1 cfu/mL. The “viable count With LAE” value (Fungi; [24]) was 9.1 · 10^4 cfu/mL, the “viable count With LAE” value (Fungi; [25]) was 1.3 · 10^2 cfu/mL and the “viable count With LAE” value (Fungi; [26]) was <9.9 · 10^1 cfu/mL. The “viable count With LAE” value (Fungi; [27]) was 2.1 · 10^4 cfu/mL, the “viable count With LAE” value (Fungi; [28]) was 3.5 · 10^2 cfu/mL and the “viable count With LAE” value (Fungi; [29]) was <9.9 · 10^1 cfu/mL. The “viable count With LAE” value (Fungi; [30]) was 7.6 · 10^4 cfu/mL, the “viable count With LAE” value (Fungi; [31]) was 1.4 · 10^2 cfu/mL and the “viable count With LAE” value (Fungi; [32]) was <9.9 · 10^1 cfu/mL. For the same compound, the “viable count With LAE” value (Fungi; [33]) was 7.6 · 10^4 cfu/mL, the “viable count With LAE” value (Fungi; [34]) was 1.6 · 10^2 cfu/mL and the “viable count With LAE” value (Fungi; [35]) was <9.9 · 10^1 cfu/mL. For the same compound, the “viable count With LAE” value (Fungi; [36]) was 5.6 · 10^4 cfu/mL, the “viable count With LAE” value (Fungi; [37]) was 1.1 · 10^2 cfu/mL and the “viable count With LAE” value (Fungi; [38]) was <9.9 · 10^1 cfu/mL. For the same compound, the “viable count With LAE” value (Fungi; [39]) was 9.6 · 10^4 cfu/mL, the “viable count With LAE” value (Fungi; [40]) was 8.7 · 10^2 cfu/mL and the “viable count With LAE” value (Fungi; [41]) was <9.9 · 10^1 cfu/mL. For the same compound, the “viable count With LAE” value (Fungi; [42]) was 1.7 · 10^4 cfu/mL, the “viable count With LAE” value (Fungi; [43]) was 2.7 · 10^2 cfu/mL and the “viable count With LAE” value (Fungi; [44]) was <9.9 · 10^1 cfu/mL. For the same compound, the “viable count With LAE” value (Fungi; [45]) was 4.9 · 10^4 cfu/mL, the “viable count With LAE” value (Fungi; [46]) was 6.7 · 10^2 cfu/mL and the “viable count With LAE” value (Fungi; [47]) was <9.9 · 10^1 cfu/mL. The “viable count With LAE” value (Fungi; [48]) was 5.3 · 10^4 cfu/mL, the “viable count With LAE” value (Fungi; [49]) was 8.7 · 10^2 cfu/mL and the “viable count With LAE” value (Fungi; [50]) was <9.9 · 10^1 cfu/mL. For the same compound, the “viable count With LAE” value (Fungi; [51]) was 5.8 · 10^4 cfu/mL.
